Laboratory results published in patent publication US20020052295A1, “Diacyl derivatives of propylene diamine having herbicidal activity” (priority 1999, published 2002).

Tests used:
Conditions in all cases: lowest tested rate giving 80% or greater inhibition, approx. 14 days after planting and treating, greenhouse
PANMI = assay: Pre-emergence herbicidal activity on PANMI (wild proso millet); type: in vivo, Panicum miliaceum
Text: (§1) All such uses, and the biological activity enabling such uses, are embraced by the term “herbicidal” herein. Tables 15 and 16 summarize results of tests conducted as described below to determine the pre-emergence herbicidal activity, in the form of a GR80 value, of illustrative compounds of this invention. […] Where herbicidal activity was evident but 80% inhibition was not achieved at the highest rate tested (typically 1000 g/ha), an asterisk (*) is shown in the following tables. Herbicidal activity evident in the form of symptoms of phytotoxicity, in the absence of at least 80% inhibition at any rate, is indicated in the tables by “phyto”. A blank cell in the following tables indicates no herbicidal or phytotoxic response at any rate tested.
(§2) The pre-emergence tests were conducted by the following procedure. Topsoil was sieved to pass through a 1.27 cm screen. Fertilizer was added to the topsoil and the mixture was then sterilized by heating. The topsoil mixture was placed in a pot and compacted to a depth of 1.0 to 1.25 cm from the top of the pot. Seeds of each of several monocotyledonous and dicotyledonous annual plant species were placed on top of the soil. Additional soil was subsequently placed over the seeds to level-fill the pot. A known amount of each test compound dissolved or suspended in an appropriate organic solvent was diluted with a 50:50 mix of acetone and water and applied to the surface of the soil. After treatment the plants were placed in a greenhouse with a 30/21° C. day/night temperature regime where they received 0.64 cm of overhead irrigation. All subsequent watering consisted of a light overhead mist and/or subirrigation as needed for germination and growth.
(§3) Approximately 14 days after planting and treating, the plants were observed and herbicidal efficacy recorded as percent inhibition by comparison with untreated plants.
(§4) The plant species usually regarded as weeds which were utilized in the tests are identified in the tables below according to the following legend, in which “d” indicates a dicotyledonous species and “m” a monocotyledonous species. All monocotyledonous species included in the tests herein are grasses.

CHEAL = assay: Pre-emergence herbicidal activity on CHEAL (common lambsquarters); type: in vivo, Chenopodium album
Text: as §1, §2, §3, §4

AMARE = assay: Pre-emergence herbicidal activity on AMARE (redroot pigweed); type: in vivo, Amaranthus retroflexus
Text: as §1, §2, §3, §4

DATST = assay: Pre-emergence herbicidal activity on DATST (jimsonweed); type: in vivo, Datura stramonium
Text: as §1, §2, §3, §4

ABUTH = assay: Pre-emergence herbicidal activity on ABUTH (velvetleaf); type: in vivo, Abutilon theophrasti
Text: as §1, §2, §3, §4

PANDI = assay: Pre-emergence herbicidal activity on PANDI (fall panicum); type: in vivo, Panicum dichotomiflorum
Text: as §1, §2, §3, §4

SOLNI = assay: Pre-emergence herbicidal activity on SOLNI (black nightshade); type: in vivo, Solanum nigrum
Text: as §1, §2, §3, §4

DIGSA = assay: Pre-emergence herbicidal activity on DIGSA (large crabgrass); type: in vivo, Digitaria sanguinalis
Text: as §1, §2, §3, §4

BRAPP = assay: Pre-emergence herbicidal activity on BRAPP (broadleaf signalgrass); type: in vivo, Brachiaria platyphylla
Text: as §1, §2, §3, §4

CIRAR = assay: Pre-emergence herbicidal activity on CIRAR (canada thistle, seedling); type: in vivo, Cirsium arvense
Text: as §1, §2, §3, §4

SETFA = assay: Pre-emergence herbicidal activity on SETFA (giant foxtail); type: in vivo, Setaria faberi
Text: as §1, §2, §3, §4

POROL = assay: Pre-emergence herbicidal activity on POROL (common purslane); type: in vivo, Portulaca oleracea
Text: as §1, §2, §3, §4

CONAR = assay: Pre-emergence herbicidal activity on CONAR (field bindweed); type: in vivo, Convolvulus arvensis
Text: as §1, §2, §3, §4

SORHA = assay: Pre-emergence herbicidal activity on SORHA (johnsongrass, seedling); type: in vivo, Sorghum halepense
Text: as §1, §2, §3, §4

SMILES | Pre-emergence activity (GR80) on PANMI (PANMI) | Pre-emergence activity (GR80) on CHEAL (CHEAL) | Pre-emergence activity (GR80) on AMARE (AMARE) [g/ha] | Pre-emergence activity (GR80) on DATST (DATST) | Pre-emergence activity (GR80) on ABUTH (ABUTH) | Pre-emergence activity (GR80) on PANDI (PANDI) | Pre-emergence activity (GR80) on SOLNI (SOLNI) | Pre-emergence activity (GR80) on DIGSA (DIGSA) | Pre-emergence activity (GR80) on BRAPP (BRAPP) | Pre-emergence activity (GR80) on CIRAR (CIRAR) | Pre-emergence activity (GR80) on SETFA (SETFA) | Pre-emergence activity (GR80) on PORAL (POROL) [g/ha] | Pre-emergence activity (GR80) on CONAR (CONAR) | Pre-emergence activity (GR80) on SORHA (SORHA)
CC(CNC(=O)c1cccc(F)c1)NC(=O)c1cccc(C(F)(F)F)c1F (stereo not shown) [Example 142] | 1000 g/ha | 500 g/ha | 125 | 750 g/ha | 1000 g/ha | 500 g/ha | 750 g/ha | 250 g/ha | 750 g/ha | 64 g/ha | 125 g/ha | 125 |  | 
CC(CNC(=O)c1cccc(C(F)(F)F)c1)NC(=O)c1ccc(F)c(C(F)(F)F)c1 (stereo not shown) [Example 6] | phyto |  | 1000 |  |  | phyto |  | phyto |  |  | phyto |  |  | 
CC(CNC(=O)c1cccc(C(F)(F)F)c1)NC(=O)c1cc(C(C)(C)C)nn1C (stereo not shown) [Example 262] |  |  |  |  |  |  |  | phyto |  |  |  |  | phyto | 
Cc1c(Cl)cccc1C(=O)NCC(C)NC(=O)c1cccc(Cl)c1C (stereo not shown) [Example 203] |  | 1000 g/ha |  | phyto | phyto |  | phyto |  |  | phyto |  |  |  | 
CC(CNC(=O)c1cccc(C(F)(F)F)c1)NC(=O)c1cccc(Cl)c1 (stereo not shown) [Example 43] | phyto | 500 g/ha | 250 | phyto |  | phyto | phyto | 750 g/ha | phyto | * (Where herbicidal activity was evident but 80% inhibition was not achieved at the highest rate tested (typically 1000 g/ha), an asterisk (*) is shown) | phyto | 500 |  | phyto
O=C(NCC(CF)NC(=O)c1cccc(C(F)(F)F)c1)c1cccc(C(F)(F)F)c1 (stereo not shown) [Example 10, N,N′-(3-fluoro-1,2-propanediylbis)-3-(trifluoromethyl) benzamide] | phyto | 750 g/ha | 500 | phyto |  | 1000 g/ha |  | phyto |  | phyto | phyto | 1000 |  | 
COc1c(C(=O)NC(C)CNC(=O)c2cccc(C(F)(F)F)c2)cccc1C(F)(F)F (stereo not shown) [Example 17] |  | 1000 g/ha | 1000 | phyto |  | phyto | phyto | 1000 g/ha |  |  | phyto | 1000 |  | 
Cc1c(C(=O)NC(C)CNC(=O)c2cccc(C(F)(F)F)c2)cccc1C(F)(F)F (stereo not shown) [Example 16] | 1000 g/ha | 1000 g/ha | 250 | 1000 g/ha | * (Where herbicidal activity was evident but 80% inhibition was not achieved at the highest rate tested (typically 1000 g/ha), an asterisk (*) is shown) | * (Where herbicidal activity was evident but 80% inhibition was not achieved at the highest rate tested (typically 1000 g/ha), an asterisk (*) is shown) | 500 g/ha | 750 g/ha |  | 750 g/ha | 500 g/ha |  |  | 
CC(CNC(=O)c1cccc(Cl)c1)NC(=O)c1cccc(C(F)(F)F)c1F (stereo not shown) [Example 145] |  | 125 g/ha | 125 |  | 500 g/ha | 500 g/ha | 1000 g/ha | 250 g/ha |  | 125 g/ha | 750 g/ha | 125 |  | 
CC(CNC(=O)c1cccc(Cl)c1F)NC(=O)c1cccc(Cl)c1F (stereo not shown) [Example 181] |  | 750 g/ha | 500 | * (Where herbicidal activity was evident but 80% inhibition was not achieved at the highest rate tested (typically 1000 g/ha), an asterisk (*) is shown) | phyto | phyto | * (Where herbicidal activity was evident but 80% inhibition was not achieved at the highest rate tested (typically 1000 g/ha), an asterisk (*) is shown) | 500 g/ha |  | * (Where herbicidal activity was evident but 80% inhibition was not achieved at the highest rate tested (typically 1000 g/ha), an asterisk (*) is shown) | phyto |  | phyto | 
Cc1c(I)cccc1C(=O)NC(C)CNC(=O)c1cccc(C(F)(F)F)c1 (stereo not shown) [Example 61] |  | 1000 g/ha | 750 | 1000 g/ha | * (Where herbicidal activity was evident but 80% inhibition was not achieved at the highest rate tested (typically 1000 g/ha), an asterisk (*) is shown) | 750 g/ha | 250 g/ha | 1000 g/ha |  | 250 g/ha | 1000 g/ha | 500 |  | 
CC(CNC(=O)c1cccc(C(F)(F)F)c1)NC(=O)c1c(-c2ccc(F)cc2Cl)noc1C(F)(F)Cl (stereo not shown) [Example 264] |  | 500 g/ha | 250 | 1000 g/ha |  | 1000 g/ha | 250 g/ha |  |  |  |  | 500 |  | 
COc1c(C)cccc1C(=O)NC(C)CNC(=O)c1cccc(C(F)(F)F)c1 (stereo not shown) [Example 68] |  |  |  |  |  | phyto |  | phyto |  |  |  |  |  | 
CCOc1c(F)cccc1C(=O)N[C@H](C)CNC(=O)c1cccc(C(F)(F)F)c1 [Example 41, R-2-ethoxy-3-fluoro-N-[1-methyl-2-(3-trifluoromethyl)phenylcarbonylamino]ethylbenzamide] | phyto | 750 g/ha | 250 | 1000 g/ha |  | 750 g/ha | phyto |  |  |  | 1000 g/ha | 500 |  | phyto
CC(CNC(=O)c1cccc(C(F)(F)F)c1)NC(=O)c1cccc(C(F)(F)F)c1OCc1ccccc1 (stereo not shown) [Example 20] | phyto | phyto | 1000 |  |  | phyto |  | phyto |  | phyto |  |  |  | 
